From PubChem BioAssay AID330 (DTP/NCI, 2004)
“And” between values parts separate entries of the source, which are not always exact repeats. Identical values can stand only once. Inconclusive results and toxic doses are left out. Square brackets hold non-standard residues; d marks the D form. Peptide text beside a SMILES is read from it. * marks the point of attachment. Cbz = O=C(OCc1ccccc1)*; Nva = CCC[CH](N)C(=O)O

System: P388 leukemia ip, CD2F1 mice, survival T/C
Test: NCI In Vivo Anticancer Drug Screen. Data for tumor model P388 Leukemia (intraperitoneal) in CD2F1 (CDF1) mice
Details: endpoint: median survival time, higher = longer survival
Method in brief: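 Mice carrying the transplanted tumor received test compound or vehicle. Survival was recorded in each group, and the value is the treated-group measurement divided by that of the vehicle-treated control group.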

[1] = dose: 60.0 mg/kg/injection, schedule: Q01DX005 (ip), vehicle: saline with Tween-80
[2] = dose: 120.0 mg/kg/injection, schedule: Q01DX005 (ip), vehicle: saline with Tween-80
[3] = dose: 240.0 mg/kg/injection, schedule: Q01DX005 (ip), vehicle: saline with Tween-80
[4] = dose: 50.0 mg/kg/injection, schedule: Q01DX009 (ip), vehicle: saline
[5] = dose: 100.0 mg/kg/injection, schedule: Q01DX009 (ip), vehicle: saline
[6] = dose: 200.0 mg/kg/injection, schedule: Q01DX009 (ip), vehicle: saline
[7] = dose: 6.25 mg/kg/injection, schedule: Q01DX009 (ip), vehicle: saline with Tween-80
[8] = dose: 12.5 mg/kg/injection, schedule: Q01DX009 (ip), vehicle: saline with Tween-80
[9] = dose: 25.0 mg/kg/injection, schedule: Q01DX009 (ip), vehicle: saline with Tween-80
[10] = dose: 50.0 mg/kg/injection, schedule: Q01DX005 (ip), vehicle: Klucel (hydroxypropylcellulose) (HPC)
[11] = dose: 100.0 mg/kg/injection, schedule: Q01DX005 (ip), vehicle: Klucel (hydroxypropylcellulose) (HPC)
[12] = dose: 200.0 mg/kg/injection, schedule: Q01DX005 (ip), vehicle: Klucel (hydroxypropylcellulose) (HPC)
[13] = dose: 25.0 mg/kg/injection, schedule: Q01DX009 (ip), vehicle: saline
[14] = dose: 50.0 mg/kg/injection, schedule: Q01DX005 (ip), vehicle: saline with Tween-80
[15] = dose: 100.0 mg/kg/injection, schedule: Q01DX005 (ip), vehicle: saline with Tween-80
[16] = dose: 200.0 mg/kg/injection, schedule: Q01DX005 (ip), vehicle: saline with Tween-80
[17] = dose: 50.0 mg/kg/injection, schedule: Q01DX009 (ip), vehicle: saline with Tween-80
[18] = dose: 100.0 mg/kg/injection, schedule: Q01DX009 (ip), vehicle: saline with Tween-80
[19] = dose: 200.0 mg/kg/injection, schedule: Q01DX009 (ip), vehicle: saline with Tween-80
[20] = dose: 100.0 mg/kg/injection, schedule: Q01DX001 (ip), vehicle: saline with Tween-80
[21] = dose: 200.0 mg/kg/injection, schedule: Q01DX001 (ip), vehicle: saline with Tween-80
[22] = dose: 400.0 mg/kg/injection, schedule: Q01DX001 (ip), vehicle: saline with Tween-80
[23] = dose: 100.0 mg/kg/injection, schedule: Q01DX009 (ip), vehicle: Klucel (hydroxypropylcellulose) (HPC)
[24] = dose: 200.0 mg/kg/injection, schedule: Q01DX009 (ip), vehicle: Klucel (hydroxypropylcellulose) (HPC)
[25] = dose: 400.0 mg/kg/injection, schedule: Q01DX009 (ip), vehicle: Klucel (hydroxypropylcellulose) (HPC)
[26] = dose: 50.0 mg/kg/injection, schedule: Q01DX009 (ip), vehicle: Klucel (hydroxypropylcellulose) (HPC)
[27] = dose: 25.0 mg/kg/injection, schedule: Q01DX009 (ip), vehicle: Klucel (hydroxypropylcellulose) (HPC)

`CS(=O)c1c(C(=O)O)cc(C(C)(C)C)cc1C(=O)O` (centres undefined) was tested, and the T/C (dose: 100.0 mg/kg/injection, schedule: Q04DX002 (ip), vehicle: Klucel (hydroxypropylcellulose) (HPC)) was 105 % of control, the T/C (dose: 200.0 mg/kg/injection, schedule: Q04DX002 (ip), vehicle: Klucel (hydroxypropylcellulose) (HPC)) was 107 % of control and the T/C (dose: 400.0 mg/kg/injection, schedule: Q04DX002 (ip), vehicle: Klucel (hydroxypropylcellulose) (HPC)) was 96 % of control.

With `COc1cc(C(Nc2ccccn2)c2cc3c(cc2OC(C)=O)OCO3)cc(OC)c1OC` (centres undefined) the T/C [1] was 104 % of control, the T/C [2] was 97 % of control and the T/C [3] was 88 % of control.

For `C=CO/C(C)=C(\[Se]c1ccccc1)C(C)=O`, the T/C [4] was 99 % of control, the T/C [5] was 100 % of control and the T/C [6] was 104 % of control.

In the case of `CCOC1(C)CC(c2cc(OC)c(OC)c(OC)c2)c2cc3c(cc2O1)OCO3` (centres undefined), the T/C (dose: 60.0 mg/kg/injection, schedule: Q01DX005 (ip), vehicle: Klucel (hydroxypropylcellulose) (HPC)) is reported as 96 % of control, the T/C (dose: 120.0 mg/kg/injection, schedule: Q01DX005 (ip), vehicle: Klucel (hydroxypropylcellulose) (HPC)) is reported as 93 % of control and the T/C (dose: 240.0 mg/kg/injection, schedule: Q01DX005 (ip), vehicle: Klucel (hydroxypropylcellulose) (HPC)) is reported as 92 % of control.

For `CC(C)(C)NC(=O)c1cccc(C(N)=O)n1`, the T/C [1] was 94 % of control, the T/C [2] was 93 % of control and the T/C [3] was 97 % of control.

For `CC1OCN2C(C)CCCC12` (centres undefined), the T/C (dose: 50.0 mg/kg/injection, schedule: Q01DX005 (ip), vehicle: saline) was 108 % of control and the T/C (dose: 100.0 mg/kg/injection, schedule: Q01DX005 (ip), vehicle: saline) was 106 % of control.

`O=C(Nc1ccc(N(CCCl)CCCl)cc1)Oc1ccc(C(=O)O)cc1` was tested, and the T/C [7] was 179 % of control and 193 % of control, the T/C [8] was 185 % of control and 189 % of control and the T/C [9] was 106 % of control.

In the case of `CCCCCCCS(=O)(=O)OCCCCOS(=O)(=O)CCCCCCC`, the T/C (dose: 45.0 mg/kg/injection, schedule: Q01DX005 (ip), vehicle: acetone) is reported as 99 % of control, the T/C (dose: 90.0 mg/kg/injection, schedule: Q01DX005 (ip), vehicle: acetone) is reported as 100 % of control and the T/C (dose: 180.0 mg/kg/injection, schedule: Q01DX005 (ip), vehicle: acetone) is reported as 99 % of control.

In the case of `Cc1cccc2nc(-c3ccccn3)n(CCc3ccccn3)c12`, the T/C [10] is reported as 98 % of control and the T/C [11] is reported as 106 % of control.

`CN1CCc2c1cc(-c1ccco1)c1c2N(C)CC1` was tested, and the T/C [10] was 104 % of control, the T/C [11] was 111 % of control and the T/C [12] was 107 % of control.

`O=C1CN(CN2CCOCC2)C(=O)CN1CN1CCOCC1` was tested, and the T/C [13] was 115 % of control and the T/C [4] was 114 % of control.

`COc1ccc(C2c3cc4c(cc3OC(C)(OC)C2C)OCO4)c(OC)c1` (centres undefined) was tested, and the T/C [14] was 88 % of control, the T/C [15] was 88 % of control and the T/C [16] was 91 % of control.

With `NC(=S)N/N=C/c1ccc(OC(=O)COc2ccc(Cl)cc2)cn1` the T/C (dose: 3.12 mg/kg/injection, schedule: Q01DX009 (ip), vehicle: saline with Tween-80) was 118 % of control, the T/C [7] was 159 % of control and the T/C [8] was 156 % of control and 157 % of control. For the same molecule, the T/C [9] was 184 % of control, the T/C [17] was 188 % of control and 189 % of control and the T/C [18] was 225 % of control and 88 % of control. The T/C [19] was 86 % of control.

With `Cc1nc2ccccc2c(=O)n1NC(=S)Nc1ccc(Cl)cc1` the T/C (dose: 100.0 mg/kg/injection, schedule: Q04DX002 (ip), vehicle: saline with Tween-80) was 90 % of control, the T/C (dose: 200.0 mg/kg/injection, schedule: Q04DX002 (ip), vehicle: saline with Tween-80) was 88 % of control and the T/C (dose: 400.0 mg/kg/injection, schedule: Q04DX002 (ip), vehicle: saline with Tween-80) was 90 % of control.

With `O=C(NCc1nc2ncc(Br)cc2[nH]1)c1ccccc1` the T/C [20] was 100 % of control, the T/C [21] was 100 % of control and the T/C [22] was 98 % of control.

For `CCCCCCCCC(=O)OCCNC(=O)C(C)OC(=O)CCCCCCCC` (centres undefined), the T/C [23] was 96 % of control, the T/C [24] was 100 % of control and the T/C [25] was 98 % of control.

With `Cc1cc(NCCCCCCCCNc2cc(C)nc3cc(N)ccc23)c2ccc(N)cc2n1` the T/C (dose: 0.78 mg/kg/injection, schedule: Q01DX009 (ip), vehicle: water) was 119 % of control and the T/C (dose: 1.56 mg/kg/injection, schedule: Q01DX009 (ip), vehicle: water) was 123 % of control.

For `O=P(c1ccccc1)(c1ccccc1)C(O)c1ccncc1` (centres undefined), the T/C [26] was 102 % of control, the T/C [23] was 103 % of control and the T/C [24] was 103 % of control.

With `O=[N+]([O-])c1ccc2oc([N+](=O)[O-])cc2c1` the T/C [10] was 101 % of control, the T/C [11] was 100 % of control and the T/C [12] was 101 % of control.

In the case of `O=C1Nc2ccccc2C12OCCS2` (centres undefined), the T/C [1] is reported as 91 % of control, the T/C [2] is reported as 98 % of control and the T/C [3] is reported as 92 % of control.

`CN1C(=O)C23CCCN2C(=O)C1(C)SC(=N)S3` (centres undefined) was tested, and the T/C (dose: 25.0 mg/kg/injection, schedule: Q04DX003 (ip), vehicle: suspension in saline) was 101 % of control, the T/C (dose: 50.0 mg/kg/injection, schedule: Q04DX003 (ip), vehicle: suspension in saline) was 95 % of control and the T/C (dose: 100.0 mg/kg/injection, schedule: Q04DX003 (ip), vehicle: suspension in saline) was 95 % of control.

`CCCC(NC(=O)OCc1ccccc1)C(=O)NC(CC(C)C)C(N)=O` (centres undefined) (Cbz-[Nva]-Leu-NH2; configuration not given here) was tested, and the T/C [10] was 112 % of control, the T/C [11] was 100 % of control and the T/C [12] was 100 % of control.

In the case of `CSc1nc(SC)c2c(C)cn(COCCOC(=O)c3ccccc3)c2n1`, the T/C [20] is reported as 104 % of control, the T/C [21] is reported as 100 % of control and the T/C [22] is reported as 91 % of control.

`O=C(OCCCN1CCCC1)C(c1ccccc1)C1C=CCC1` (centres undefined) was tested, and the T/C (dose: 6.25 mg/kg/injection, schedule: Q01DX009 (ip), vehicle: Klucel (hydroxypropylcellulose) (HPC)) was 100 % of control, the T/C (dose: 12.5 mg/kg/injection, schedule: Q01DX009 (ip), vehicle: Klucel (hydroxypropylcellulose) (HPC)) was 98 % of control and the T/C [27] was 100 % of control. For the same molecule, the T/C [26] was 101 % of control, the T/C [23] was 95 % of control and the T/C [24] was 100 % of control. The T/C [25] was 100 % of control.

`CCOC(=O)C1=C(C)NC(C)=C(C(=O)OCC)C1c1ccc(OC)cc1` was tested, and the T/C [27] was 94 % of control, the T/C [26] was 91 % of control and the T/C [23] was 100 % of control. For the same molecule, the T/C [24] was 101 % of control.

In the case of `CCCCCCCCCSCC`, the T/C [17] is reported as 100 % of control, the T/C [18] is reported as 109 % of control and the T/C (dose: 100.0 mg/kg/injection, schedule: Q04DX003 (ip), vehicle: saline with Tween-80) is reported as 109 % of control. For the same molecule, the T/C [19] was 109 % of control, the T/C (dose: 200.0 mg/kg/injection, schedule: Q04DX003 (ip), vehicle: saline with Tween-80) was 100 % of control and the T/C (dose: 400.0 mg/kg/injection, schedule: Q04DX003 (ip), vehicle: saline with Tween-80) was 86 % of control.

For `CCCCN(CC(O)c1cc2c(c3ccccc13)CCCC2)c1ccc(OC)cc1` (centres undefined), the T/C [14] was 115 % of control, the T/C [15] was 101 % of control and the T/C [16] was 101 % of control.

`NC(=O)c1sc2ncccc2c1N` was tested, and the T/C [1] was 96 % of control, the T/C [2] was 92 % of control and the T/C [3] was 96 % of control.

`O=C(CO)N(CCO)CCO` was tested, and the T/C [4] was 98 % of control, the T/C [5] was 95 % of control and the T/C [6] was 96 % of control.

`O=C(C[n+]1ccccc1Br)c1cccc([N+](=O)[O-])c1` was tested, and the T/C (dose: 6.25 mg/kg/injection, schedule: Q01DX009 (ip), vehicle: saline) was 103 % of control, the T/C (dose: 12.5 mg/kg/injection, schedule: Q01DX009 (ip), vehicle: saline) was 107 % of control and the T/C [13] was 99 % of control. For the same molecule, the T/C [4] was 103 % of control.

In the case of `C=C/C=C/NC(=O)OCc1ccccc1`, the T/C [17] is reported as 100 % of control, the T/C [18] is reported as 105 % of control and the T/C [19] is reported as 102 % of control.

In the case of `Cn1c2nc(-[n+]3ccc(-c4ccccc4)cc3)nc-2c([O-])n(C)c1=O`, the T/C (dose: 100.0 mg/kg/injection, schedule: Q04DX003 (ip), vehicle: saline) is reported as 99 % of control and the T/C (dose: 200.0 mg/kg/injection, schedule: Q04DX003 (ip), vehicle: saline) is reported as 89 % of control.
